Source: paper PMC11864979, “First-in-class ultralong-target-residence-time p38α inhibitors as a mitosis-targeted therapy for colorectal cancer” (Nature Cancer, 2025)
Read-outs that look alike come from different tables or passages of the source.

Legend:
Experiment in all cases: selectivity profiling in a panel of 340 wild-type kinases (Reaction Biology Europe)
Assay type in all cases: binding
[1] = target: T1, 340 wild-type kinases (Homo sapiens, UniProt O14757)
T1 construct: purchased Reaction Biology Europe
T1 sequence (O14757 1-476): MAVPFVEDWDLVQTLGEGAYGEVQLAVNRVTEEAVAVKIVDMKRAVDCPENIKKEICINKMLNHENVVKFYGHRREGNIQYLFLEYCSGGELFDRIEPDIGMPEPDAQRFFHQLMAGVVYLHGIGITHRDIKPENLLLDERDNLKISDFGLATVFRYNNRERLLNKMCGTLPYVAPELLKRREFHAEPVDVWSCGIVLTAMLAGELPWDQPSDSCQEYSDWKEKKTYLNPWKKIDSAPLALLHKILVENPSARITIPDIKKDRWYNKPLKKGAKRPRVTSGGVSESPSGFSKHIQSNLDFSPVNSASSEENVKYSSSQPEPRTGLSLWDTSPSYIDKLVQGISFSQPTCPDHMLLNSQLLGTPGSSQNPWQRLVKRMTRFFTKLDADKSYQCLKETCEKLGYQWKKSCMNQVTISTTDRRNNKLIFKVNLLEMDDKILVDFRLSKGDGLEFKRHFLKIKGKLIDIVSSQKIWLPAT

[2] = target: T2, 340 wild-type kinases (Homo sapiens, UniProt O75582)
T2 construct: purchased Reaction Biology Europe

[3] = target: T3, 340 wild-type kinases (Homo sapiens, UniProt P04626)
T3 construct: purchased Reaction Biology Europe

[4] = target: T4, 340 wild-type kinases (Homo sapiens, UniProt P07947)
T4 construct: purchased Reaction Biology Europe

[5] = target: T5, 340 wild-type kinases (Homo sapiens, UniProt P07949)
T5 construct: purchased Reaction Biology Europe

[6] = target: T6, 340 wild-type kinases (Homo sapiens, UniProt P29317)
T6 construct: purchased Reaction Biology Europe

[7] = target: T7, 340 wild-type kinases (Homo sapiens, UniProt P35916)
T7 construct: purchased Reaction Biology Europe

[8] = target: T8, 340 wild-type kinases (Homo sapiens, UniProt P53671)
T8 construct: purchased Reaction Biology Europe

[9] = target: T9, 340 wild-type kinases (Homo sapiens, UniProt Q13153)
T9 construct: purchased Reaction Biology Europe

[10] = target: T10, 340 wild-type kinases (Homo sapiens, UniProt Q13233)
T10 construct: purchased Reaction Biology Europe

[11] = target: T11, 340 wild-type kinases (Homo sapiens, UniProt Q5TCY1)
T11 construct: purchased Reaction Biology Europe

[12] = target: T12, 340 wild-type kinases (Homo sapiens, UniProt Q9UF33)
T12 construct: purchased Reaction Biology Europe
T12 sequence (Q9UF33 23-1036): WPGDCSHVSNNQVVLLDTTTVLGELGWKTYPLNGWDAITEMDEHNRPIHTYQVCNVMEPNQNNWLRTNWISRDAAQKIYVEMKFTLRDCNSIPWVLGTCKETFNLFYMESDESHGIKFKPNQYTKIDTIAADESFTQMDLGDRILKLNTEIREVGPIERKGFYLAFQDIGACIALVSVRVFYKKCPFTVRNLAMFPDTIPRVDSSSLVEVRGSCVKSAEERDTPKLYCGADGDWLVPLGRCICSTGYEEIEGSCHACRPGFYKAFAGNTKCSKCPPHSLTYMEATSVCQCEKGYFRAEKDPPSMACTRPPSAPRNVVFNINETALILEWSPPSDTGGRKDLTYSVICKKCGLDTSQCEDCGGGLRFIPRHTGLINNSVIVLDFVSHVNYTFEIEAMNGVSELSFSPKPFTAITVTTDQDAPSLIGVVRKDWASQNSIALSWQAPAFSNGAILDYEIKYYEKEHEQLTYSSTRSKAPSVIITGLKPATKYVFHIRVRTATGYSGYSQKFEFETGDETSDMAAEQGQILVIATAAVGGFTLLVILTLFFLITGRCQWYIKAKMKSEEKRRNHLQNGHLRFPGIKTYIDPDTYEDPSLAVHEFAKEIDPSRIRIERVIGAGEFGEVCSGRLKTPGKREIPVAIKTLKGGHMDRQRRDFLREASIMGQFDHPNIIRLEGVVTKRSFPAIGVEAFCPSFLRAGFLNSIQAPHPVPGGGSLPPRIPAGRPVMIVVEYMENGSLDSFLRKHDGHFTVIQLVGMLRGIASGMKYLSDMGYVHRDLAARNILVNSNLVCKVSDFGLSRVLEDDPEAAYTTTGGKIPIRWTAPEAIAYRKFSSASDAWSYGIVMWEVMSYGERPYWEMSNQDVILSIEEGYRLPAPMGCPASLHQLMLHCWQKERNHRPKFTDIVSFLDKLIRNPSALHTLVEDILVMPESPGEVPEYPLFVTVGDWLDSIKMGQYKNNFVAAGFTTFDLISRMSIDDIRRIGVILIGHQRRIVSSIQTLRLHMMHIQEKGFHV

T6 sequence (P29317 24-976): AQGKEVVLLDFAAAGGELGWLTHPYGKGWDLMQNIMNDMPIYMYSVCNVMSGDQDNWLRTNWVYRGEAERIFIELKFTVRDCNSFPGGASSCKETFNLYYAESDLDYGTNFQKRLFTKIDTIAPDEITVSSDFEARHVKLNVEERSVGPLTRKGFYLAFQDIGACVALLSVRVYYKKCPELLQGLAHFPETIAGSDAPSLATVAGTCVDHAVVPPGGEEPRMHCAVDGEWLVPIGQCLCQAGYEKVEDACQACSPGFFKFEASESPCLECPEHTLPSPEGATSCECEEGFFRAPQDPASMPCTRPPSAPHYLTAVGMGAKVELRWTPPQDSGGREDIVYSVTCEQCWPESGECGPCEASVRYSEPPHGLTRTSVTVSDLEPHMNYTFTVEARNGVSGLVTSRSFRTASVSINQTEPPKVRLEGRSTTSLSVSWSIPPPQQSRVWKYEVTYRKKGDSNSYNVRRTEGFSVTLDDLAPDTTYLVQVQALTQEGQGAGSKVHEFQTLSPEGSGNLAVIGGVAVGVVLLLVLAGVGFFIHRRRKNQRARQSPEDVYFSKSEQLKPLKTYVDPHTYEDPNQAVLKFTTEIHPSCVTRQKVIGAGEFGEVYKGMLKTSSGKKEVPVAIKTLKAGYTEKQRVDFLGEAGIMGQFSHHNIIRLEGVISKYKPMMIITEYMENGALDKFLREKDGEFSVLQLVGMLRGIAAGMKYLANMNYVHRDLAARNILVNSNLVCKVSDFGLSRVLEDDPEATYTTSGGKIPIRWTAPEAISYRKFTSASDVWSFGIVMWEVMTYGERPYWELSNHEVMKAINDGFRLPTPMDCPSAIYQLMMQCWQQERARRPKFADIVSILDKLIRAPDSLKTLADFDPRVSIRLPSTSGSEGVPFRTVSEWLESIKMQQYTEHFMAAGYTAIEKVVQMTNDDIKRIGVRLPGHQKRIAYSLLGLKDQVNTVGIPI
T8 sequence (P53671 whole entry): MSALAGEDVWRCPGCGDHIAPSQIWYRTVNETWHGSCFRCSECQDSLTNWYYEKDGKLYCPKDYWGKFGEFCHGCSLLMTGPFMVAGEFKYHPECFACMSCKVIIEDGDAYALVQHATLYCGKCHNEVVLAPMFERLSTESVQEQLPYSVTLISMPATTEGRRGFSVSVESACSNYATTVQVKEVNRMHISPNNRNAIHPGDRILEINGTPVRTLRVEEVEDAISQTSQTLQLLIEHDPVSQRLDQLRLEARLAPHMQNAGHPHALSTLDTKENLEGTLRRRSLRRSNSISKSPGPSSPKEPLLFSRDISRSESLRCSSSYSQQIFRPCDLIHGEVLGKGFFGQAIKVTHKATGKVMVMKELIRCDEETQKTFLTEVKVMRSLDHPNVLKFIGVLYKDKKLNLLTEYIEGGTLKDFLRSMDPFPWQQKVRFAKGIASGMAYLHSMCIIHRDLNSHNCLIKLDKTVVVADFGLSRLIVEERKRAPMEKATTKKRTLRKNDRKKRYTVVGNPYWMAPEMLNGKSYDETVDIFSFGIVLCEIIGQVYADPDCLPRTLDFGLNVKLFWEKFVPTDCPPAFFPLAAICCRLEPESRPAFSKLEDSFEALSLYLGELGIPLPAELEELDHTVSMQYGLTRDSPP
T10 sequence (Q13233 whole entry): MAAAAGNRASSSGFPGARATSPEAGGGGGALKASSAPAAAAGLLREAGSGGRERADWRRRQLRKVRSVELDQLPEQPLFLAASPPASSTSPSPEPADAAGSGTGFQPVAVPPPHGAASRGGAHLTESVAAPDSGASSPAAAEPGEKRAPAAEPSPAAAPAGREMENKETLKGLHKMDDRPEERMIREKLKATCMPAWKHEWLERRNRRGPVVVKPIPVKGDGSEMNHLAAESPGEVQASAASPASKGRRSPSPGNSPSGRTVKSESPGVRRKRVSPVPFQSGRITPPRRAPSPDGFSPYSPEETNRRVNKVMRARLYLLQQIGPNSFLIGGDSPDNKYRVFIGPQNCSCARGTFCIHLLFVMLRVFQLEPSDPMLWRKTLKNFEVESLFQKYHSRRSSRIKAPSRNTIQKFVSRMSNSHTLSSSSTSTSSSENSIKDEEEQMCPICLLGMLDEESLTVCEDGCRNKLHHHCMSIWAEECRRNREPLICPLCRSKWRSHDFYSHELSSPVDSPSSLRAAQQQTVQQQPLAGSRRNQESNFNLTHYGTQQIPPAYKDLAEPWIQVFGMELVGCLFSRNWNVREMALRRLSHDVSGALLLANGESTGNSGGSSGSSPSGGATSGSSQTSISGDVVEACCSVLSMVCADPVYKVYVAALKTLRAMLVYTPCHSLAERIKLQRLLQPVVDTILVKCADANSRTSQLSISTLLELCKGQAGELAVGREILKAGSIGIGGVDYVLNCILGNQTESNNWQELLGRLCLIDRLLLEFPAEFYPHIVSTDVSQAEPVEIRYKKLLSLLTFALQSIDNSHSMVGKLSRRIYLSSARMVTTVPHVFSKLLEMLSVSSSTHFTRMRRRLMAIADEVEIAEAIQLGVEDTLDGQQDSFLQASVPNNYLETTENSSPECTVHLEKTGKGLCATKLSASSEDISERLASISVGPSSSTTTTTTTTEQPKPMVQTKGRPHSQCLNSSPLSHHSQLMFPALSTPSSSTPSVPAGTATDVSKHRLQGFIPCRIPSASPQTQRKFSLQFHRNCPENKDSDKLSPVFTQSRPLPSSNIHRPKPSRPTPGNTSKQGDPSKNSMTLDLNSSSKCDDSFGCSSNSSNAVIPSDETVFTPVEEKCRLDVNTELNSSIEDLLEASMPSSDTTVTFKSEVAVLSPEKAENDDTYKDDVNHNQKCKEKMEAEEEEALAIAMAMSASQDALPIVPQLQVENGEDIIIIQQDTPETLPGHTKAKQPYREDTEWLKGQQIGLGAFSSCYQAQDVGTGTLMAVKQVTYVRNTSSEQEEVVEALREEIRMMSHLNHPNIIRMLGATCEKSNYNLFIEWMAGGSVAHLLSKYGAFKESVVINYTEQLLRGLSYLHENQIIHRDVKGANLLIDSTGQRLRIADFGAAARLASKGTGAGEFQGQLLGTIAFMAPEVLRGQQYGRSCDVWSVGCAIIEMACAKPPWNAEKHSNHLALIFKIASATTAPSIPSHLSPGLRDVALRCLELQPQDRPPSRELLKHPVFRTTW
T4 sequence (P07947 whole entry): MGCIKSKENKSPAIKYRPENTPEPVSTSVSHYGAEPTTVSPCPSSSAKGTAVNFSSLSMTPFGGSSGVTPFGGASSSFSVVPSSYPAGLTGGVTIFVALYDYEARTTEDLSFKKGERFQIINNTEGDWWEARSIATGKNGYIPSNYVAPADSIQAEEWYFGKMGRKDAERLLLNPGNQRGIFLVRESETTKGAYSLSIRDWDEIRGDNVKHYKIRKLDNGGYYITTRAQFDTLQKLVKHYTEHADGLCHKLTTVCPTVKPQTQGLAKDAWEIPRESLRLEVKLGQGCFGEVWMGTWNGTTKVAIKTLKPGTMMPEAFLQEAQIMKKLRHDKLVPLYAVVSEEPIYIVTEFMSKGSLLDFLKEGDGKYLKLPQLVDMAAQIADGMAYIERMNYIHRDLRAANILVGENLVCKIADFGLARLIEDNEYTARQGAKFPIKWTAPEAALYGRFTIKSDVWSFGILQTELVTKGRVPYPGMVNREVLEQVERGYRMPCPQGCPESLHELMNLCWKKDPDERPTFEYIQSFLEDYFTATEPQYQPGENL
T3 sequence (P04626 23-1255): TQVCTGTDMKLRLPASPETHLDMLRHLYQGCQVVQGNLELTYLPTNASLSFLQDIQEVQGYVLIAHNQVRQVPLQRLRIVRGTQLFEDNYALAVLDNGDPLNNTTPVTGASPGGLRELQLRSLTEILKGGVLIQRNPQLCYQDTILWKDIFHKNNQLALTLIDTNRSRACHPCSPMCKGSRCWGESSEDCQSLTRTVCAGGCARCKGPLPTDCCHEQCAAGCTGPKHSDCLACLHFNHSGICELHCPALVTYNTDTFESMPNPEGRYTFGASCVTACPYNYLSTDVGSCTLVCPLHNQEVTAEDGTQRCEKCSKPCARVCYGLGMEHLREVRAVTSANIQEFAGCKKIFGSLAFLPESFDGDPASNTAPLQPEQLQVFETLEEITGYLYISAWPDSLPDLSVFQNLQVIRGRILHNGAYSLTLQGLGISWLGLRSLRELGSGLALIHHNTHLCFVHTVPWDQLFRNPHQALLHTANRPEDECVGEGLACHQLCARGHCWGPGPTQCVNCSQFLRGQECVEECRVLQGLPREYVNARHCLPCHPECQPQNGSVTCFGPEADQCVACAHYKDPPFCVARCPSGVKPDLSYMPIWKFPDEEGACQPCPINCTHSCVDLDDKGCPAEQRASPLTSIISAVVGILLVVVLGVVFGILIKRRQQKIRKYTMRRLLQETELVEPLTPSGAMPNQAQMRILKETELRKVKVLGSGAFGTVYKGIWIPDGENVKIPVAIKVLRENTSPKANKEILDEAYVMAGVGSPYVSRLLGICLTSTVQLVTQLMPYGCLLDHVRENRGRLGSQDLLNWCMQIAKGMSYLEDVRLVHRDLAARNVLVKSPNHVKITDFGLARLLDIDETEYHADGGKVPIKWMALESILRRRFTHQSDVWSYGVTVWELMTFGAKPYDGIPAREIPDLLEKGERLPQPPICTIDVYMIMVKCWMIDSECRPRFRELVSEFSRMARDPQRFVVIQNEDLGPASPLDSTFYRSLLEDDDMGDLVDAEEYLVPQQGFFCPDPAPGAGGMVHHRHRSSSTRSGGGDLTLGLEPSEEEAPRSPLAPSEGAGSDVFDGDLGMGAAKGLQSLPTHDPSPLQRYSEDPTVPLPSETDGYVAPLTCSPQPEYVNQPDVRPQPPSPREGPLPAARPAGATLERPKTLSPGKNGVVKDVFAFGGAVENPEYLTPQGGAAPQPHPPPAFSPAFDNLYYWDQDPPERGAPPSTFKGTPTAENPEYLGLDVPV

`CNC(=O)c1ccc2c(c1)C(=O)c1ccc(Nc3ccc(F)c(NC(=O)C4CC4)c3)cc1CC2` [Compound 2015] was tested, and the remaining activity at 0.2 µM ([1]; 0.2 µM 2015, read-out: CHK1 residual activity) was 88.2%, the remaining activity at 1 µM ([1]; 1 µM 2015, read-out: CHK1 residual activity) was 87.9% and the remaining activity at 0.2 µM ([1]; CHK1, 0.2 µM, read-out: residual activity) was 88.2%. It also gave a remaining activity at 1 µM ([1]; CHK1, 1 µM, read-out: residual activity) of 87.8%, a remaining activity at 0.2 µM ([2]; 0.2 µM 2015, read-out: RPS6KA5 residual activity) of 93.6% and a remaining activity at 0.2 µM ([2]; RPS6KA5, 0.2 µM, read-out: residual activity) of 93.6%. For the same compound, the remaining activity at 1 µM ([2]; RPS6KA5, 1 µM, read-out: residual activity) was 90.2%, the remaining activity at 0.2 µM ([3]; 0.2 µM 2015, read-out: ERBB2 residual activity) was 105% and the remaining activity at 1 µM ([3]; 1 µM 2015, read-out: ERBB2 residual activity) was 102%. It also gave a remaining activity at 0.2 µM ([3]; ERBB2, 0.2 µM, read-out: residual activity) of 105%, a remaining activity at 1 µM ([3]; ERBB2, 1 µM, read-out: residual activity) of 102% and a remaining activity at 0.2 µM ([4]; 0.2 µM 2015, read-out: YES residual activity) of 102%. The remaining activity at 1 µM ([4]; 1 µM 2015, read-out: YES residual activity) was 105%, the remaining activity at 0.2 µM ([4]; YES, 0.2 µM, read-out: residual activity) was 102% and the remaining activity at 1 µM ([4]; YES, 1 µM, read-out: residual activity) was 105%. It also gave a remaining activity at 0.2 µM ([5]; 0.2 µM 2015, read-out: RET residual activity) of 105%, a remaining activity at 1 µM ([5]; 1 µM 2015, read-out: RET residual activity) of 80.3% and a remaining activity at 0.2 µM ([5]; RET, 0.2 µM, read-out: residual activity) of 105%. It also gave a remaining activity at 1 µM ([5]; RET, 1 µM, read-out: residual activity) of 80.3%, a remaining activity at 0.2 µM ([6]; 0.2 µM 2015, read-out: EPHA2 residual activity) of 98.4% and a remaining activity at 1 µM ([6]; 1 µM 2015, read-out: EPHA2 residual activity) of 102%. It also gave a remaining activity at 0.2 µM ([6]; EPHA2, 0.2 µM, read-out: residual activity) of 98.4%, a remaining activity at 1 µM ([6]; EPHA2, 1 µM, read-out: residual activity) of 102% and a remaining activity at 0.2 µM ([7]; 0.2 µM 2015, read-out: VEGFR3 residual activity) of 109%. For the same compound, the remaining activity at 1 µM ([7]; 1 µM 2015, read-out: VEGFR3 residual activity) was 94.2%, the remaining activity at 0.2 µM ([7]; VEGFR3, 0.2 µM, read-out: residual activity) was 109% and the remaining activity at 1 µM ([7]; VEGFR3, 1 µM, read-out: residual activity) was 94.2%. For the same compound, the remaining activity at 0.2 µM ([8]; 0.2 µM 2015, read-out: LIMK2 residual activity) was 114%, the remaining activity at 1 µM ([8]; 1 µM 2015, read-out: LIMK2 residual activity) was 103% and the remaining activity at 0.2 µM ([8]; LIMK2, 0.2 µM, read-out: residual activity) was 114%. It also gave a remaining activity at 1 µM ([8]; LIMK2, 1 µM, read-out: residual activity) of 103%, a remaining activity at 0.2 µM ([9]; 0.2 µM 2015, read-out: PAK1 residual activity) of 94.7% and a remaining activity at 1 µM ([9]; 1 µM 2015, read-out: PAK1 residual activity) of 79.5%. For the same compound, the remaining activity at 0.2 µM ([9]; PAK1, 0.2 µM, read-out: residual activity) was 94.7%, the remaining activity at 1 µM ([9]; PAK1, 1 µM, read-out: residual activity) was 79.5% and the remaining activity at 0.2 µM ([10]; 0.2 µM 2015, read-out: MAP3K1 residual activity) was 104%. The remaining activity at 1 µM ([10]; 1 µM 2015, read-out: MAP3K1 residual activity) was 102%, the remaining activity at 0.2 µM ([10]; MAP3K1, 0.2 µM, read-out: residual activity) was 104% and the remaining activity at 1 µM ([10]; MAP3K1, 1 µM, read-out: residual activity) was 102%. It also gave a remaining activity at 0.2 µM ([11]; 0.2 µM 2015, read-out: TTBK1 residual activity) of 88.5%, a remaining activity at 1 µM ([11]; 1 µM 2015, read-out: TTBK1 residual activity) of 93.4% and a remaining activity at 0.2 µM ([11]; TTBK1, 0.2 µM, read-out: residual activity) of 88.5%. The remaining activity at 1 µM ([11]; TTBK1, 1 µM, read-out: residual activity) was 93.4%, the remaining activity at 0.2 µM ([12]; 0.2 µM 2015, read-out: EPHA6 residual activity) was 87.2% and the remaining activity at 1 µM ([12]; 1 µM 2015, read-out: EPHA6 residual activity) was 85.9%. It also gave a remaining activity at 0.2 µM ([12]; EPHA6, 0.2 µM, read-out: residual activity) of 87.2% and a remaining activity at 1 µM ([12]; EPHA6, 1 µM, read-out: residual activity) of 85.9%.
